Experimental data published in US20200277246A1, “TREATMENT METHOD, COMPOUNDS, AND METHOD OF INCREASING TRPV2 ACTIVITY” (THE FEINSTEIN INSTITUTE FOR MEDICAL RESEARCH, priority 2015, published 2020).
“And” between values parts separate entries of the source, which are not always exact repeats. Identical values can stand only once. “Also recorded” adds a separate entry of the source.

Legend:
[1] = tested on: FLS from DA rats with PIA; assay: Matrigel transwell invasion assay, FLS from DA rats with PIA (incl. siRNA knock-down); format: cell-based, rat; settings: for Reduction of FLS invasion: DA cells, overnight
Experimental: The in vitro invasiveness of FLS was assayed in a transwell system using Matrigel-coated inserts (BD Biosciences, Franklin Lakes, N.J.), as previously described (Tolboom et al., “Invasiveness of Fibroblast-Like Synoviocytes is an Individual Patient Characteristic Associated with the Rate of Joint Destruction in Patients with Rheumatoid Arthritis,” Arthritis Rheum. 52 (7):1999-2002 (2005); Laragione et al., “The Arthritis Severity Locus Cia5d is a Novel Genetic Regulator of the Invasive Properties of Synovial Fibroblasts,” Arthritis Rheum. 58 (8):2296-2306 (2008), which are hereby incorporated by reference in their entirety). Briefly, 70-80% confluent cells were harvested by trypsin-EDTA digestion, and re-suspended at 2.0×10^4 cells in 500 μl of serum-free DMEM. Cells were placed in the upper compartment of the Matrigel-coated inserts. Where indicated, O1821, LER13, or vehicle was added to the upper chamber. The lower compartment was filled with complete media and the plates were incubated at 37° C. for 24 hours. After 24 hours the upper surface of the insert was wiped with cotton-swabs to remove non-invading cells and the Matrigel layer. The opposite side of the insert was stained with Crystal Violet (Sigma) and the total number of cells that invaded through Matrigel counted at 100× magnification. Experiments were done in duplicate.
Dharmacon SMARTpool siRNA targeting Trpv2, Gapdh, or a non-coding control were purchased from Thermo Scientific (Lafayette, Colo.) and transfected into DA FLS according to the manufacturer's instructions. Cells were then incubated at 37° C. for 72 hours prior to initiating the invasion assays. Knock-down was confirmed with qPCR and Western blot.

Trpv2 = molecular target: T1, Trpv2 (Rattus norvegicus, UniProt Q9WUD2); assay: Intracellular calcium influx (Fluo-4 NW) in DA FLS; format: cell-based; design: endogenous in cells; host or cells: fibroblast-like synoviocytes (FLS) from DA rats; settings: for Intracellular calcium influx vs untreated and vehicle: increasing concentrations, two DA FLS cell lines
T1 sequence (Q9WUD2 1-761): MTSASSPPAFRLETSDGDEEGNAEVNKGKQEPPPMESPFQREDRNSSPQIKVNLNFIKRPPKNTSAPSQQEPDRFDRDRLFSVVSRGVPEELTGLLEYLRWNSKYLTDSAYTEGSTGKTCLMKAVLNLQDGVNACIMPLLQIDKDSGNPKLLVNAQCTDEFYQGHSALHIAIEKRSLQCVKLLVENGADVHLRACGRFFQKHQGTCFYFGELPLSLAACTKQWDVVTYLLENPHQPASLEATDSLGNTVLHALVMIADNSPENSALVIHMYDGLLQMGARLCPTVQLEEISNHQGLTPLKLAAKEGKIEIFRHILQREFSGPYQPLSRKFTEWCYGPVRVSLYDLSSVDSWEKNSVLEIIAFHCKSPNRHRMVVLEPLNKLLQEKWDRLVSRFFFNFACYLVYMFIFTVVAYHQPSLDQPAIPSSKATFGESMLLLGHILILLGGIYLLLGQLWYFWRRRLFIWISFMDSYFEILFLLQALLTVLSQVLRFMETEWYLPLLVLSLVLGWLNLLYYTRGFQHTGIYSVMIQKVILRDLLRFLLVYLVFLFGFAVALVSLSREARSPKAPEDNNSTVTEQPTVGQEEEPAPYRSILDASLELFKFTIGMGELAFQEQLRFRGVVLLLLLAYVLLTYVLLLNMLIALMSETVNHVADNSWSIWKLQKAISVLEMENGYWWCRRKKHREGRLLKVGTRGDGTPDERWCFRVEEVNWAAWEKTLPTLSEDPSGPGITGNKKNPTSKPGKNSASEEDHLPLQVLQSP
Experimental: Intracellular calcium influx was measured using the Fluo-4 NW calcium assay kit (Molecular Probes/Invitrogen) according to the manufacturer's instructions, as previously described (Laragione et al., “CXCL10 and its Receptor CXCR3 Regulate Synovial Fibroblast Invasion in Rheumatoid Arthritis,” Arthritis Rheum. 63 (11):3274-3283 (2011), which is hereby incorporated by reference in its entirety). Briefly, DA FLS were plated at a density of 4,500 cells/well in a 96-well plate (100 μl volume of complete media per well). After cell adhesion the media was changed to serum-free media for overnight culture. Serum-free media was then replaced with 50 μl of dye loading solution, followed by incubation at 37° C. for 30 minutes and a baseline fluorimetric reading. Then, O1821, LER13, or vehicle were added to their respective wells at different concentrations and fluorescence read immediately in a Fluoroskan Ascent Microplate Fluorometer (Thermo Scientific) with settings appropriate for excitation at 494 nm and emission at 516 nm.

[2] = tested on: FLS from a C57BL/6 mouse with KRN serum-induced arthritis; assay: Matrigel transwell invasion assay, mouse FLS; format: cell-based; settings: 10 μM, one cell line in triplicate
Experimental: The in vitro invasiveness of FLS was assayed in a transwell system using Matrigel-coated inserts (BD Biosciences, Franklin Lakes, N.J.), as previously described (Tolboom et al., “Invasiveness of Fibroblast-Like Synoviocytes is an Individual Patient Characteristic Associated with the Rate of Joint Destruction in Patients with Rheumatoid Arthritis,” Arthritis Rheum. 52 (7):1999-2002 (2005); Laragione et al., “The Arthritis Severity Locus Cia5d is a Novel Genetic Regulator of the Invasive Properties of Synovial Fibroblasts,” Arthritis Rheum. 58 (8):2296-2306 (2008), which are hereby incorporated by reference in their entirety). Briefly, 70-80% confluent cells were harvested by trypsin-EDTA digestion, and re-suspended at 2.0×10^4 cells in 500 μl of serum-free DMEM. Cells were placed in the upper compartment of the Matrigel-coated inserts. Where indicated, O1821, LER13, or vehicle was added to the upper chamber. The lower compartment was filled with complete media and the plates were incubated at 37° C. for 24 hours. After 24 hours the upper surface of the insert was wiped with cotton-swabs to remove non-invading cells and the Matrigel layer. The opposite side of the insert was stained with Crystal Violet (Sigma) and the total number of cells that invaded through Matrigel counted at 100× magnification. […]

| Compound | Suppression of FLS invasion ([1]; 10 μM, non-transfected, siRNA control and siRNA GAPDH DA FLS, listed as LER13) | Suppression of FLS invasion after Trpv2 siRNA knock-down ([1]; siRNA Trpv2 transfected FLS, listed as LER13) | Calcium influx higher compared with O1821 (Trpv2; DA FLS) [%] | Intracellular calcium influx vs untreated and vehicle (Trpv2) | Calcium influx (Trpv2; measured over 200 seconds, compared with O1821) | Reduction in invasion vs control vehicle ([2]; listed as LER13) | Reduction of FLS invasion ([1]; 1 μM) [%] | Reduction of FLS invasion ([1]; 10 μM) [%] | Reduction in invasion vs control vehicle [2] [%] |
| --- | --- | --- | --- | --- | --- | --- | --- | --- | --- |
| C#Cc1cc(O)c(C2C=C(C)CCC2C(=C)C)c(O)c1C1C=C(C)CCC1C(=C)C [Compound 13, (1R,2″R,2R,2″S)-6′-ethynyl-5,5″-dimethyl-2,2″-di(prop-1-en-2-yl)-1,1″,2,2″,3,3″,4,4″-octahydro-[1,1′:3′,1″-terphenyl]-2′,4′-diol] | 65% and 60% | non-responsive; also recorded: not responsive or suppressed | ~30 | significantly increased intracellular calcium influx | increased (30% greater than O1821) | 65% and 75% | – | – | – |
| C=C(C)[C@@H]1CCC(C)=C[C@H]1c1c(O)cc(C)cc1O [Compound O1821] | – | – | – | significant dose-dependent increase; also recorded: significantly increased intracellular calcium influx | – | – | 80 | 99.4 | 65 |
